Source: article PMC5875417 (ACS chemical neuroscience, 2015)
Several values for one entry are separate records, joined by “and”; a condition that tells them apart may be missing. Equal values may be shown once. Read-outs that look alike come from different tables or passages of the source.

Molecular target: human dopamine transporter (hDAT) (Homo sapiens, UniProt Q01959)
Test: cell-based
Format: cell-based
Settings: for Relative persistent current (Ip relative to Io) after washout: as a function of concentration, Ip current remaining after washout before block with cocaine; for Depolarizing current: data not shown
[1] = Hill fit of dose-response normalized to 10 μM DA, −60 mV
[2] = ability to generate a persistent current at 10 μM and −60 mV

Sequence of human dopamine transporter (hDAT) (Q01959 whole entry): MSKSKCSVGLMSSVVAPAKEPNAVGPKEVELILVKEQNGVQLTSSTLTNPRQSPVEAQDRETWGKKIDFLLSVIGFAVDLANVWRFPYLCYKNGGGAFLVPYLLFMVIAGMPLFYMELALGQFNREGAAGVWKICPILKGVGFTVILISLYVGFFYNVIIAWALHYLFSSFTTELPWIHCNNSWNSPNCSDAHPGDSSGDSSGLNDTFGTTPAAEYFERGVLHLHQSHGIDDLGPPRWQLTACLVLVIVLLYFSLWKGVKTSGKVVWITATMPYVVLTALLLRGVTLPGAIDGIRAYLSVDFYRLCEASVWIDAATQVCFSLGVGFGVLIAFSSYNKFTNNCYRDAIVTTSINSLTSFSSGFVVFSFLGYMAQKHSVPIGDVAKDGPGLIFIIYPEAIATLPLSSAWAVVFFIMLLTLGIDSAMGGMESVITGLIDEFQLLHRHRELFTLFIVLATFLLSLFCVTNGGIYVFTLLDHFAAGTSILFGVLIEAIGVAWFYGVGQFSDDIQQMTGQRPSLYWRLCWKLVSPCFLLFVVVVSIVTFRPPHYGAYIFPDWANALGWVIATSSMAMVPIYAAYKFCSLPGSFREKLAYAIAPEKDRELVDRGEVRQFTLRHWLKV

Which results are given for `Cl.NCCc1ccc(O)cc1` [3-des-OH DA (3), 2-(4-Hydroxyphenyl)-1-aminoethane hydrochloride]?
Hill coefficients: 0.91 ±0.08; Persistent Current: no pronounced persistent current and No; EC50 (EC50): 1450 nM and 1430 nM

Which Hill coefficients [1] does the source give for `NCCc1cccc(O)c1` [4-des-OH DA (4), 2-(3-Hydroxyphenyl)-1-aminoethane] here?
The Hill coefficients was 1.07 ±0.09.

What about the “Persistent Current” value [2] of the same compound?
Its value is “No”.

What about the “Persistent Current” value (ability to generate a persistent current at 10 μM and −60 mV, listed as 4-des-OH DA) of the same compound?
Its value is “no pronounced persistent current”.

Which “Block of induced currents through hDAT” value does the source give for `COC(=O)[C@H]1[C@@H](OC(=O)c2ccccc2)C[C@@H]2CC[C@H]1N2C` [Cocaine, reference compound] here?
Its value is “blocks the DA- and R(−)AMPH-induced initial currents”.

For `NCCc1ccc(O)c(O)c1` [DA (2), dopamine, reference compound], which Hill coefficients is on record?
Its Hill coefficients is 1.32 ±0.07.

And the “Persistent Current” value?
Its value is “No”.

What about the “Rank order of efficacy” value of the same compound?
Its value is “S(+)AMPH > DA > R(−)AMPH”.

How did the Hill coefficients [1] turn out when `C[C@@H](N)Cc1ccc(O)cc1.Cl` [R(−) α-Me 3-des-OH DA (R6), R(–)-1-(4-Hydroxyphenyl)-2-aminopropane hydrochloride] was run?
Its Hill coefficients is 0.98 ± 0.08.

And the “Persistent Current” value [2]?
The value was “No”.

What about the “Relative persistent current (Ip relative to Io) after washout” value (−60 mV) of the same compound?
Its value is “much lower persistent current than S(+)AMPH (S1)”.

Which Hill coefficients [1] does the source give for `Br.C[C@@H](N)Cc1ccc(O)c(O)c1` [R(−) α-Me DA (R7), R(−)-1-(3,4-Dihydroxyphenyl)-2-aminopropane hydrobromide] here?
The Hill coefficients was 0.55 ± 0.06.

What about the “Persistent Current” value [2] of the same compound?
Its value is “No”.

`COC(=O)[C@H]1C(c2ccc(I)cc2)C[C@@H]2CC[C@H]1N2C` (stereo partly shown) [RTI-55, reference compound] was tested. Which “Block of S(+)AMPH-induced initial peak current and persistent current” value (10 μM RTI-55, −60 mV) did it give?
The value was “blocked”.

What does the source list for `C[C@H](N)Cc1ccc(O)cc1.Cl` [S(+) α-Me 3-des-OH DA (S6), S(+)-1-(4-Hydroxyphenyl)-2-aminopropane hydrochloride]?
Recovery time constant T50 upon removal of compound, compared to DA (10 μM, −60 mV, normalized to 10 μM DA in same cell): no significant differences; Hill coefficients [1]: 0.49 ± 0.05; Persistent Current [2]: No; Relative persistent current (Ip relative to Io) after washout (−60 mV): much lower persistent current than S(+)AMPH (S1)

`Br.C[C@H](N)Cc1ccc(O)c(O)c1` [S(+) α-Me DA (S7), S(+)-1-(3,4-Dihydroxyphenyl)-2-aminopropane hydrobromide] was tested. Which Hill coefficients [1] did it give?
The Hill coefficients was 0.71 ± 0.11.

What about the “Persistent Current” value [2] of the same compound?
Its value is “No”.

`COc1ccc(CCN)cc1` [compound 8, 2-(4-Methoxyphenyl)-1-aminoethane] was tested. Which Depolarizing current (10 μM) did it give?
The Depolarizing current was “comparatively small depolarizing currents”.

For `COc1cccc(CCN)c1` [compound 9, 2-(3-methoxyphenyl)-1-aminoethane], which Depolarizing current (10 μM) is on record?
The Depolarizing current was “comparatively small depolarizing currents”.

Which results are given for `NCCc1ccccc1` [β-PEA (5), 2-phenyl-1-aminoethane, reference compound]?
Persistent Current (100 μM, −60 mV): pronounced persistent current; Hill coefficients [1]: 1.06 ± 0.16; Persistent Current [2]: Yes; Relative persistent current (Ip relative to Io) after washout (−60 mV): much lower persistent current than S(+)AMPH (S1)
